Measurements from patent US6664285B1, “Use of cell membrane penetrating indigoid bisindole derivatives” (priority 1999, dated 2003).
Read-outs that look alike come from different tables or passages of the source.

Assays:
HT29X (colon) = experiment: Colony-forming assay; assay type: cell-based, human; settings: colon HT29X; for IC50: read-out: IC50 colony formation
[1] = test system: LXFS650 (lung small-cell); experiment: Colony-forming assay; assay type: cell-based, human
CXF280 (colon) = experiment: Colony-forming assay; assay type: cell-based, human
MX1 (mammary) = experiment: Colony-forming assay; assay type: cell-based, human
BXF1299 (bladder) = experiment: Colony-forming assay; assay type: cell-based, human
[2] = test system: human tumor xenograft LXFL 529; experiment: In vivo testing in nude mice bearing subcutaneous tumor xenograft; settings: for tumor growth (relative tumor volume) compared to the vehicle control (in words): LXFL 529/17, i.p., nude mice, FIG. 1
Protocol: Compound of Examples 1, 4, 6, 8, 9 and 10 were subjected to in vivo testing in nude mice bearing subcutaneously growing human tumor xenograft LXFL 529. The indigoid bisindole derivatives were applied intraperitoneally to the animals in doses and according to the schedule as described in Table 4.
The experiments were run for 21 or 28 days. Anti-tumor activity was evaluated comparing the median tumor volume relative to control, expressed as %T/C, wherein T is the test group and C the vehicle control group. In Table 4, anti-tumor activity is given according to an activity rate scale.

LXFL 529L cells = experiment: Cellular uptake into LXFL 529L cells; settings: for distribution cellular organelles / distribution cytosol / amount of substance within the cells: 2 hours incubation
Protocol: The compounds of Examples 1, 6 and 8 and Comparative Examples 1 and 2 were investigated with respect to their ability to penetrate LXFL 529L cells having the passage numbers P23 to P39. The amounts of the substances taken up by the cells are given depending on the concentration of the substance within the incubation medium. The time of incubation was 2 hours in all of the experiments. Furthermore, the distribution of the substance which was taken up by the cells in the cytosol and the cellular organelles (particular) was estimated and is given in the intermediate column of Table 2. Tumor cell growth inhibition was determined by the sulfo-rhodamine B assay (SRB assay) according to Skehan et al., J. Natl. Cancer Institute 82, pages 1107-1112 (1990). Incubation was conducted for three days in serum containing medium. Tumor cell lines tested were a large-cell lung carcinoma xenograft line LXFL 529 L and the mammary carcinoma line MCF-7.

[3] = test system: large-cell lung carcinoma xenograft line LXFL 529 L; experiment: Tumor cell growth inhibition, sulforhodamine B (SRB) assay; assay type: cell-based, human; settings: LXFL529L; three days incubation, serum containing medium
[4] = test system: mammary carcinoma line MCF-7; experiment: as above; assay type: cell-based, human; settings: MCF7; three days incubation, serum containing medium
[5] = test system: LXFL529 (lung large-cell); experiment: Colony-forming assay; assay type: cell-based, human
MCF7X (mammary) = experiment: Colony-forming assay; assay type: cell-based, human; settings: for IC50: read-out: IC50 colony formation
OVXF1353 (ovarian) = experiment: Colony-forming assay; assay type: cell-based, human
Protocol: (§1) The anti-tumor activity of the compounds was evaluated via a colony-forming-assay as described e.g. by D. P. Berger et al. in Annals of Oncology 1, pages 333-341 (1 990), “The clonongenic assay with human tumor xenografts, evaluation, predictive values and application for drug screening”.
(§2) The experiments were conducted using various tumor cell lines, in particular mammary carcinoma (MAXF), lung adenocarcinoma (LXFA), large-cell lung carcinoma (LXFL), small-cell lung carcinoma (LXFS), colon carcinoma (CXF), melanoma (MEXF), pancreatic carcinoma (PAXF), renal carcinoma (RXF), ovarian carcinoma (OVXF) and bladder carcinoma (BXF).

PAXF736 (pancreatic) = experiment: Colony-forming assay; assay type: cell-based, human; settings: for IC50: read-out: IC50 colony formation
[6] = cited from earlier work
MEXF514 (melanoma) = experiment: Colony-forming assay; assay type: cell-based, human
OVXF1352 (ovarian) = test system: OVXF1352 (ovarian)
Protocol: as §1, §2

[7] = dosage of 100 mg/kg up to 300 mg/kg, FIG. 2 and FIG. 4
Excerpt: A reduction of the body weight of the tested mice of more then 20% by weight in general is interpreted as a toxic dose.

[8] = Homo sapiens, read-out: IC50 colony formation
[9] = concentration of incubation 10 μM
[10] = concentration of incubation 20 μM
[11] = read-out: IC50 colony formation

Compound c1ccc(-c2c(-c3[nH]c4ccccc4c3-c3ccccc3)[nH]c3ccccc23)cc1 [Example 14, Bis(3-phenylindol-2-yl)] has an IC50 (HT29X (colon); Homo sapiens) of 1.6 µM, an IC70 colony formation (HT29X (colon)) of 3.4 µM and an IC70 colony formation [1] of 6.7 µM. For the same compound, the IC50 [1, 8] was 4.7 µM, the IC70 colony formation (CXF280 (colon)) was 7.2 µM and the IC50 (CXF280 (colon); [8]) was less than 1 µM. The IC70 colony formation (MX1 (mammary)) was 4.8 µM, the IC50 (MX1 (mammary); [8]) was 2.8 µM and the IC70 colony formation (BXF1299 (bladder)) was 6.2 µM. The IC50 (BXF1299 (bladder); [8]) was 2.7 µM, the activity rating ([2]; 10 mg/kg/day i.p., days 1-5, 8-12) was “− (inactive T/C > 50%)” and the activity rating ([2]; 100 mg/kg/day i.p., days 1-5, 8-12) was “+ (tumor inhibition T/C > 25-50%)”. The activity rating ([2]; 300 mg/kg/day i.p., days 1-5, 8-12) was “+ (tumor inhibition T/C > 25-50%)”.
For O=C1Nc2ccccc2/C1=C1/Nc2ccccc2C1=O [Example 1, Indirubin], the “uptake by the tumor cells (in words)” value (LXFL 529L cells; LXFL 529L cells) was “taken up by the tumor cells”, the distribution cellular organelles (LXFL 529L cells; [9]) was 93 ± 5.7% and the distribution cytosol (LXFL 529L cells; [9]) was 7 ± 5.7%. It also gave a distribution cellular organelles (LXFL 529L cells; [10]) of 94 ± 1.4%, a distribution cytosol (LXFL 529L cells; [10]) of 6 ± 1.4% and an IC50 [3] of 9.9 ± 0.1 µM. The IC50 [4] was 4 ± 2 µM, the IC70 colony formation [5] was 35.6 µM and the IC50 [5, 11] was 25.3 µM. For the same compound, the IC70 colony formation (MCF7X (mammary)) was 6.0 µM, the IC50 (MCF7X (mammary)) was 2 µM and the IC70 colony formation (OVXF1353 (ovarian)) was greater than 30 µM. The IC50 (OVXF1353 (ovarian); [11]) was 12.3 µM, the IC70 colony formation (PAXF736 (pancreatic)) was greater than 30 µM and the IC50 (PAXF736 (pancreatic)) was 5.4 µM. For the same compound, the activity rating ([2]; 100 mg/kg/day i.p., days 1-5, 8-9) was “+ (tumor inhibition T/C > 25-50%)”, the activity rating ([2]; 200 mg/kg/day i.p., days 1-5, 8-9) was “++ (tumor stasis T/C ≦ 25%)” and the “tumor growth (relative tumor volume) compared to the vehicle control (in words)” value [2] was “significantly inhibited the tumor growth”. For the same compound, the “solubility in water (in words)” value [6] was “dissolves only poorly in water”.
With Cc1ccc2c(c1)/C(=C1/Nc3ccccc3C1=O)C(=O)N2 [Example 6, 5-Methylindirubin] the “ability to penetrate the cellular membrane / uptake compared to indirubin (Example 1) (in words)” value (LXFL 529L cells; LXFL 529L cells) was “substantially improved”, the “uptake by the tumor cells (in words)” value (LXFL 529L cells; LXFL 529L cells) was “taken up by the tumor cells” and the “amount of substance within the cells” value (LXFL 529L cells; [9]) was 0.52 ± 0.1. For the same compound, the distribution cellular organelles (LXFL 529L cells; [9]) was 87 ± 0.7%, the distribution cytosol (LXFL 529L cells; [9]) was 13 ± 0.7% and the “amount of substance within the cells” value (LXFL 529L cells; [10]) was 0.86 ± 0.22. It also gave a distribution cellular organelles (LXFL 529L cells; [10]) of 94 ± 2.8%, a distribution cytosol (LXFL 529L cells; [10]) of 6 ± 2.8% and an IC50 [3] of 7.5 ± 0.5 µM. It also gave an IC50 [4] of 4.8 ± 0.5 µM, an IC70 colony formation (MCF7X (mammary)) of 1.2 µM and an IC50 (MCF7X (mammary)) of less than 1 µM. The IC70 colony formation (PAXF736 (pancreatic)) was 27.5 µM, the IC50 (PAXF736 (pancreatic)) was 15.4 µM and the IC70 colony formation (HT29X (colon)) was 14.4 µM. It also gave an IC50 (HT29X (colon)) of less than 1 µM, an IC70 colony formation (MEXF514 (melanoma)) of 27.8 µM and an IC50 (MEXF514 (melanoma); [11]) of 19.2 µM. The IC70 colony formation (OVXF1352 (ovarian)) was greater than 30 µM, the IC50 (OVXF1352 (ovarian); [11]) was 1 µM and the activity rating ([2]; 100 mg/kg/day i.p., days 1-5, 8-12, 15, 17, 19, 22) was “++ (tumor stasis T/C ≦ 25%)”. For the same compound, the activity rating ([2]; 300 mg/kg/day i.p., days 1, 4, 8, 11, 15, 18, 22) was “++ (tumor stasis T/C ≦ 25%)”, the “tumor growth (relative tumor volume) compared to the vehicle control (in words)” value [2] was “significantly inhibited the tumor growth” and the “anti-tumor activity (in words)” value ([2]; dosage of 100 mg/kg up to 300 mg/kg, FIG. 1 and FIG. 3) was “very high anti-tumor activity”. The “reduction of body weight (in words)” value [7] was “without any significant reduction of body weight”.
